The values that follow come from US20200385371A1 (Propellon Therapeutics Inc., priority 2017, published 2020).

Each structure is given as a SMILES string.

The target in experiment [1] is T1, WDR5 (Homo sapiens, UniProt P61964). The experiment is described as follows: Fluorescence Polarization (FP) binding assay. A digest of the protocol: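 Buffer was pH 6.5 sodium phosphate (80 mM) with 20 mM KCl and 0.008% Triton X-100; 9-Ala-FAM probe at 20 nM used 0.05 μM WDR5 and 480/540 nm polarization, H3 (1-15) probe at 30 nM used 0.3 μM WDR5 and 485/528 nm. Quadruplicate data were hyperbola-fitted to give Kdisp.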
In general terms: In fluorescence polarisation assays a small probe gives low polarisation when free and higher when bound to something large.

Another experiment relates to MV4-11 cells. The experiment is described as follows: Cell proliferation assay (ATPlite). Type of experiment: cell-based. The conditions noted are these: Homo sapiens, 120 h; MV4-11 cells, five days; read-out: GI MV411 EC50. Put shortly:
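ATPlite luminescence after five days' culture (37° C, 5% CO2) gives viability. Compounds dosed in 10 concentrations up to 10 μM against DMSO; 1,000 cells/well seeded in Alpha-MEM/10% FBS.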
For orientation: ATP-based viability assays read luminescence as a measure of living cells.

The target in experiment [2] is T1, WDR5. The experiment is described as follows: Surface Plasmon Resonance (SPR) assay. Particulars: read-out: SPR Kd. Further details: Full length WDR5 with an N-terminal His tag and C-terminal AviTag; His tag (N); made in house; host or cells: E. coli. Type of experiment: binding. Put shortly:
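Full-length biotinylated WDR5 (N-His, C-AviTag, E. coli) captured (~3000 RU) on streptavidin SA chip; Biacore T200. HBS-EP pH 7.4 plus 5% DMSO running buffer, 40 μl/min.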

Usually IC50 stands for the concentration that gives 50% inhibition. A word on the EC50: it is the concentration at which the effect is half-maximal. As usually defined, the Kd is the free concentration of one partner at which half of the binding sites on the other are occupied at equilibrium, for simple one-to-one binding. On to `C[C@H]1CN(c2ccc(-c3c(F)cc(N4CCN(C)[C@@H](C)C4)c(NC(=O)c4c[nH]c(=O)cc4C(F)(F)F)c3F)cn2)CCO1` [Example 171, N-(6-((S)-3,4-dimethylpiperazin-1-yl)-2,4-difluoro-3-(6-((S)-2-methylmorpholino)pyridin-3-yl)phenyl)-6-oxo-4-(trifluoromethyl)-1,6-dihydropyridine-3-carboxamide], for which the IC50 at WDR5 [1] came to 16.1 nM. Also, in the experiment with MV4-11 cells, the EC50 came to 51.9 nM. Besides, the Kd on WDR5 [2] was found to be 0.49 nM.
For `C[C@@H]1CN(c2ccc(-c3c(F)cc(N4CCN(C)[C@@H](C)C4)c(NC(=O)c4ccc(F)cc4C(F)(F)F)c3F)cn2)CCO1` [Example 172, N-(6-((S)-3,4-dimethylpiperazin-1-yl)-2,4-difluoro-3-(6-((R)-2-methylmorpholino)pyridin-3-yl)phenyl)-4-fluoro-2-(trifluoromethyl)benzamide] the same measures were 18.9 nM, 124 nM and 1.02 nM.
With `C[C@H]1CN(c2cc(F)c(-c3cnc(N4CCNCC4)nc3)c(F)c2NC(=O)c2ccc(F)cc2C(F)(F)F)CCN1C` [Example 173, (S)—N-(6-(3,4-dimethylpiperazin-1-yl)-2,4-difluoro-3-(2-(piperazin-1-yl)pyrimidin-5-yl)phenyl)-4-fluoro-2-(trifluoromethyl)benzamide], the IC50 on WDR5 [1] is 16 nM. Besides, in the experiment with MV4-11 cells, the EC50 is 24.4 nM. For the same compound, the Kd at WDR5 [2] came to 1.35 nM.
With `C[C@H]1CN(c2cc(F)c(-c3ccc(N4CCOCC4)nc3)c(F)c2NC(=O)c2ccc(F)cc2C(F)(F)F)CCN1C` [Example 174, (S)—N-(6-(3,4-dimethylpiperazin-1-yl)-2,4-difluoro-3-(6-morpholinopyridin-3-yl)phenyl)-4-fluoro-2-(trifluoromethyl)benzamide], the IC50 at WDR5 [1] is 19.5 nM. Further, the EC50 with MV4-11 cells was 191 nM. Besides, at WDR5 [2], the Kd worked out at 1.71 nM.
The matching figures for `C[C@@H]1CN(c2ccc(-c3c(F)cc(N4CCN(C)[C@@H](C)C4)c(NC(=O)c4cn(C)c(=O)cc4C(F)F)c3F)cn2)C[C@H](C)O1` [Example 175, 4-(Difluoromethyl)-N-(3-(6-((2S,6R)-2,6-dimethylmorpholino)pyridin-3-yl)-6-((S)-3,4-dimethylpiperazin-1-yl)-2,4-difluorophenyl)-1-methyl-6-oxo-1,6-dihydropyridine-3-carboxamide]: 24.6 nM, 255 nM and 1.57 nM.
Take `C[C@@H]1CN(c2ccc(-c3c(F)cc(N4CCN(C)[C@@H](C)C4)c(NC(=O)c4ccc(F)cc4C(F)(F)F)c3F)cn2)C[C@H](C)O1` [Example 176, N-(3-(6-((2S,6R)-2,6-dimethylmorpholino)pyridin-3-yl)-6-((S)-3,4-dimethylpiperazin-1-yl)-2,4-difluorophenyl)-4-fluoro-2-(trifluoromethyl)benzamide]: the IC50 at WDR5 [1] was 19.8 nM. Besides, the EC50 in the experiment with MV4-11 cells was found to be 139 nM. Besides, at WDR5 [2], the Kd came out at 1.46 nM.
For `C[C@@H]1CN(c2ccc(-c3c(F)cc(N4CCN(C)[C@@H](C)C4)c(NC(=O)c4ccc(F)cc4C(F)F)c3F)cn2)CCO1` [Example 177, 2-(Difluoromethyl)-N-(6-((S)-3,4-dimethylpiperazin-1-yl)-2,4-difluoro-3-(6-((R)-2-methylmorpholino)pyridin-3-yl)phenyl)-4-fluorobenzamide] the same measures were 23 nM, 101 nM and 1.72 nM.
For the compound `C[C@@H]1CN(c2ccc(-c3c(F)cc(N4CCN(C)[C@@H](C)C4)c(NC(=O)c4ccc(F)cc4C(F)F)c3F)cn2)C[C@H](C)O1` [Example 178, 2-(Difluoromethyl)-N-(3-(6-((2S,6R)-2,6-dimethylmorpholino)pyridin-3-yl)-6-((S)-3,4-dimethylpiperazin-1-yl)-2,4-difluorophenyl)-4-fluorobenzamide], the IC50 at WDR5 [1] amounted to 19.7 nM. The EC50 in the experiment with MV4-11 cells was determined as 189 nM. Further, the Kd on WDR5 [2] turned out to be 1.42 nM.
For `C[C@H]1CN(c2ccc(-c3c(F)cc(N4CCN(C)[C@@H](C)C4)c(NC(=O)c4ccc(F)cc4C(F)F)c3F)cn2)CCO1` [Example 179, 2-(Difluoromethyl)-N-(6-((S)-3,4-dimethylpiperazin-1-yl)-2,4-difluoro-3-(6-((S)-2-methylmorpholino)pyridin-3-yl)phenyl)-4-fluorobenzamide] the same measures were 20.1 nM, 141 nM and 1.59 nM.
For `C[C@H]1CN(c2cc(F)c(-c3ccc(N4CCOCC4)nc3)c(F)c2NC(=O)c2ccc(F)cc2C(F)F)CCN1C` [Example 180, (S)-2-(Difluoromethyl)-N-(6-(3,4-dimethylpiperazin-1-yl)-2,4-difluoro-3-(6-morpholinopyridin-3-yl)phenyl)-4-fluorobenzamide], the IC50 at WDR5 [1] is 22.4 nM. Besides, the EC50 with MV4-11 cells worked out at 198 nM. Moreover, the Kd at WDR5 [2] worked out at 2.51 nM.
Regarding `C[C@@H]1CN(c2ccc(-c3c(F)cc(N4CCN(C)[C@@H](C)C4)c(NC(=O)c4c[nH]c(=O)cc4C(F)F)c3F)cn2)CCO1` [Example 181, 4-(Difluoromethyl)-N-(6-((S)-3,4-dimethylpiperazin-1-yl)-2,4-difluoro-3-(6-((R)-2-methylmorpholino)pyridin-3-yl)phenyl)-6-oxo-1,6-dihydropyridine-3-carboxamide], the IC50 at WDR5 [1] worked out at 24.5 nM. In addition, the EC50 with MV4-11 cells stood at 29.9 nM. For the same compound, the Kd at WDR5 [2] came to 0.64 nM.
The matching figures for `C[C@@H]1CN(c2ccc(-c3c(F)cc(N4CCN(C)[C@@H](C)C4)c(NC(=O)c4c[nH]c(=O)cc4C(F)F)c3F)cn2)C[C@H](C)O1` [Example 182, 4-(Difluoromethyl)-N-(3-(6-((2S,6R)-2,6-dimethylmorpholino)pyridin-3-yl)-6-((S)-3,4-dimethylpiperazin-1-yl)-2,4-difluorophenyl)-6-oxo-1,6-dihydropyridine-3-carboxamide]: 25.4 nM, 31 nM and 1.15 nM.
As for `C[C@H]1CN(c2ccc(-c3c(F)cc(N4CCN(C)[C@@H](C)C4)c(NC(=O)c4c[nH]c(=O)cc4C(F)F)c3F)cn2)CCO1` [Example 183, 4-(Difluoromethyl)-N-(6-((S)-3,4-dimethylpiperazin-1-yl)-2,4-difluoro-3-(6-((S)-2-methylmorpholino)pyridin-3-yl)phenyl)-6-oxo-1,6-dihydropyridine-3-carboxamide], the IC50 at WDR5 [1] was found to be 22.7 nM. In the experiment with MV4-11 cells, the EC50 turned out to be 24.4 nM. Further, the Kd at WDR5 [2] is 1.34 nM.
In the case of `C[C@H]1CN(c2cc(F)c(-c3ccc4c(c3)OCO4)c(F)c2NC(=O)c2c[nH]c(=O)cc2C(F)(F)F)CCN1C` [Example 184, (S)—N-(3-(benzo[d][1,3]dioxol-5-yl)-6-(3,4-dimethylpiperazin-1-yl)-2,4-difluorophenyl)-6-oxo-4-(trifluoromethyl)-1,6-dihydropyridine-3-carboxamide], the 50% inhibitory concentration (IC50) at WDR5 [1] stood at 25.5 nM. For the same compound, the EC50 with MV4-11 cells worked out at 90.3 nM. Moreover, the Kd at WDR5 [2] stood at 1.17 nM.
The matching figures for `C[C@H]1CN(c2cc(F)c(-c3ccc4c(c3)OCCO4)c(F)c2NC(=O)c2c[nH]c(=O)cc2C(F)(F)F)CCN1C` [Example 185, (S)—N-(3-(2,3-dihydrobenzo[b][1,4]dioxin-6-yl)-6-(3,4-dimethylpiperazin-1-yl)-2,4-difluorophenyl)-6-oxo-4-(trifluoromethyl)-1,6-dihydropyridine-3-carboxamide]: 26.5 nM, 170 nM and 1.29 nM.
Turning to `C[C@H]1CN(c2cc(F)c(-c3ccc(OC4CCOCC4)nc3)c(F)c2NC(=O)c2c[nH]c(=O)cc2C(F)(F)F)CCN1C` [Example 186, (S)—N-(6-(3,4-dimethylpiperazin-1-yl)-2,4-difluoro-3-(6-((tetrahydro-2H-pyran-4-yl)oxy)pyridin-3-yl)phenyl)-6-oxo-4-(trifluoromethyl)-1,6-dihydropyridine-3-carboxamide], the IC50 at WDR5 [1] was 26.9 nM. Besides, the EC50 in the experiment with MV4-11 cells worked out at 39.9 nM. Further, at WDR5 [2], the Kd amounted to 0.8 nM.
The matching figures for `C[C@H]1CN(c2cc(F)c(C3=CCN(C(=O)c4csc(CN(C)C)n4)CC3)c(F)c2NC(=O)c2c[nH]c(=O)cc2C(F)F)CCN1C` [Example 187, (S)-4-(difluoromethyl)-N-(3-(1-(2-((dimethylamino)methyl)thiazole-4-carbonyl)-1,2,3,6-tetrahydropyridin-4-yl)-6-(3,4-dimethylpiperazin-1-yl)-2,4-difluorophenyl)-6-oxo-1,6-dihydropyridine-3-carboxamide]: 14.7 nM, 913 nM and 2.95 nM.
The matching figures for `Cc1nc(C(=O)N2CCC=C(c3c(F)cc(N4C[C@@H](C)N(C)[C@@H](C)C4)c(NC(=O)c4c[nH]c(=O)cc4C(F)(F)F)c3F)C2)cs1` [Example 188, N-(2,4-difluoro-3-(1-(2-methylthiazole-4-carbonyl)-1,2,5,6-tetrahydropyridin-3-yl)-6-((3S,5R)-3,4,5-trimethylpiperazin-1-yl)phenyl)-6-oxo-4-(trifluoromethyl)-1,6-dihydropyridine-3-carboxamide]: 13.1 nM, 468 nM and 2.54 nM.
